Legend:
[1] = J. Karnatak Univ., Sci. (1984), 29, 82-6; cited from earlier work
[2] = target: T1, epidermal growth factor (EGF) receptor tyrosine kinase (Homo sapiens, UniProt P00533); experiment: In vitro receptor tyrosine kinase inhibition test (EGF receptor); assay type: biochemical
T1 construct: made in house; host or cells: insect cells (baculovirus, as for Flt)
From the text: (§1) (a) In Vitro Receptor Tyrosine Kinase Inhibition Test
This assay determines the ability of a test compound to inhibit tyrosine kinase activity. DNA encoding VEGF or epidermal growth factor (EGF) receptor cytoplasmic domains may be obtained by total gene synthesis (Edwards M, International Biotechnology Lab 5(3), 19-25, 1987) or by cloning. These may then be expressed in a suitable expression system to obtain polypeptide with tyrosine kinase activity. […] In the case of the VEGF receptor Flt (Genbank accession number X51602), a 1.7 kb DNA fragment encoding most of the cytoplasmic domain, commencing with methionine 783 and including the termination codon, described by Shibuya et al (Oncogene, 1990, 5: 519-524), was isolated from cDNA and cloned into a baculovirus transplacement vector (for example pAcYM1 (see The Baculovirus Expression System: A Laboratory Guide, L. A. King and R. D. Possee, Chapman and Hall, 1992) or pAc360 or pBlueBacHis (available from Invitrogen Corporation)). This recombinant construct was co-transfected into insect cells (for example Spodoptera frugiperda 21 (Sf21)) with viral DNA (eg Pharmingen BaculoGold) to prepare recombinant baculovirus. (Details of the methods for the assembly of recombinant DNA molecules and the preparation and use of recombinant baculovirus can be found in standard texts for example Sambrook et al, 1989. Molecular cloning—A Laboratory Manual, 2nd edition, Cold Spring Harbour Laboratory Press and O'Reilly et al, 1992, Baculovirus Expression Vectors—A Laboratory Manual. W. H. Freeman and Co. New York). For other tyrosine kinases for use in assays, cytoplasmic fragments starting from methionine 806 (KDR, Genbank accession number L04947) and methionine 668 (EGF receptor, Genbank accession number X00588) may be cloned and expressed in a similar manner.
For expression of cFlt tyrosine kinase activity, Sf21 cells were infected with plaque-pure cFlt recombinant virus at a multiplicity of infection of 3 and harvested 48 hours later. Harvested cells were washed with ice cold phosphate buffered saline solution (PBS) (10 mM sodium phosphate pH7.4, 138 mM NaCl, 2.7 mM KCl) then resuspended in ice cold HNTG/PMSF (20 mM Hepes pH7.5, 150 mM NaCl, 10% v/v glycerol, 1% v/v Triton X100. 1.5 mM MgCl2, 1 mM ethylene glycol-bis(βaminoethyl ether) N,N,N′,N′-tetraacetic acid (EGTA), 1 mM PMSF (phenylmethylsulphonyl fluoride); the PMSF is added just before use from a freshly-prepared 100 mM solution in methanol) using 1 ml HNTG/PMSF per 10 million cells. The suspension was centrifuged for 10 minutes at 13.000 rpm at 4° C., the supernatant (enzyme stock) was removed and stored in aliquots at −70° C. Each new batch of stock enzyme was titrated in the assay by dilution with enzyme diluent (100 mM Hepes pH 7.4, 0.2 mM Na3VO4, 0.1% v/v Triton X100, 0.2 mM dithiothreitol). For a typical batch, stock enzyme is diluted 1 in 2000 with enzyme diluent and 50 μl of dilute enzyme is used for each assay well.
(§2) A stock of substrate solution was prepared from a random copolymer containing tyrosine, for example Poly (Glu, Ala, Tyr) 6:3:1 (Sigma P3899), stored as 1 mg/ml stock in PBS at −20° C. and diluted 1 in 500 with PBS for plate coating.
(§3) On the day before the assay 100 μl of diluted substrate solution was dispensed into all wells of assay plates (Nunc maxisorp 96-well immunoplates) which were sealed and left overnight at 4° C.
(§4) On the day of the assay the substrate solution was discarded and the assay plate wells were washed once with PBST (PBS containing 0.05% v/v Tween 20) and once with 50 mM Hepes pH7.4.
Test compounds were diluted with 10% dimethylsulphoxide (DMSO) and 25 μl of diluted compound was transferred to wells in the washed assay plates. “Total” control wells contained 10% DMSO instead of compound. Twenty five microliters of 40 mM MnCl2 containing 8 μM adenosine-5′-triphosphate (ATP) was added to all test wells except “blank” control wells which contained MnCl2 without ATP. […]

[3] = target: T2, VEGF receptor tyrosine kinase (Homo sapiens, UniProt P17948); experiment: In vitro receptor tyrosine kinase inhibition test (VEGF receptor); assay type: biochemical
T2 construct: encoding most of the cytoplasmic domain, commencing with methionine 783 and including the termination codon; made in house; host or cells: Spodoptera frugiperda Sf21 insect cells (baculovirus); cleared Triton X100 lysate used as enzyme stock
T2 sequence (P17948 781-1338 limits assumed): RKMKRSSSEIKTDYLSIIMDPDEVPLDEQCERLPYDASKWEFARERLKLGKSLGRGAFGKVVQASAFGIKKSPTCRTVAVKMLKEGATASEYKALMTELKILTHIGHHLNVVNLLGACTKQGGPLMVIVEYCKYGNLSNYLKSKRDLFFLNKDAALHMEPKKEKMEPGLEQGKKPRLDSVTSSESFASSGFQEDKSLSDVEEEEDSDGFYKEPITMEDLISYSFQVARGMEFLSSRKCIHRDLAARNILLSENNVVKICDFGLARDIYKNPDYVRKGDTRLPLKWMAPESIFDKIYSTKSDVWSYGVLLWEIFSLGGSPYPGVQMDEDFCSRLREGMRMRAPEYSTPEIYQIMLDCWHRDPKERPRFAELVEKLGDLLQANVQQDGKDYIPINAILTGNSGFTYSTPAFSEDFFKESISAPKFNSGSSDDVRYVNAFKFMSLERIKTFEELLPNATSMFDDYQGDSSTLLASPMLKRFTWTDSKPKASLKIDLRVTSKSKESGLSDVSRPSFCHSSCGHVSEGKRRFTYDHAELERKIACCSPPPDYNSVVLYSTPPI
From the text: as §1
This assay determines the ability of a test compound to inhibit tyrosine kinase activity. […] These may then be expressed in a suitable expression system to obtain polypeptide with tyrosine kinase activity. […] This recombinant construct was co-transfected into insect cells (for example Spodoptera frugiperda 21 (Sf21)) with viral DNA (eg Pharmingen BaculoGold) to prepare recombinant baculovirus.
For expression of cFlt tyrosine kinase activity, Sf21 cells were infected with plaque-pure cFlt recombinant virus at a multiplicity of infection of 3 and harvested 48 hours later. […] The suspension was centrifuged for 10 minutes at 13.000 rpm at 4° C., the supernatant (enzyme stock) was removed and stored in aliquots at −70° C. Each new batch of stock enzyme was titrated in the assay by dilution with enzyme diluent (100 mM Hepes pH 7.4, 0.2 mM Na3VO4, 0.1% v/v Triton X100, 0.2 mM dithiothreitol). For a typical batch, stock enzyme is diluted 1 in 2000 with enzyme diluent and 50 μl of dilute enzyme is used for each assay well.
as §2, §3, §4
Test compounds were diluted with 10% dimethylsulphoxide (DMSO) and 25 μl of diluted compound was transferred to wells in the washed assay plates. “Total” control wells contained 10% DMSO instead of compound. Twenty five microliters of 40 mM MnCl2 containing 8 μM adenosine-5′-triphosphate (ATP) was added to all test wells except “blank” control wells which contained MnCl2 without ATP. To start the reactions 50 μl of freshly diluted enzyme was added to each well and the plates were incubated at room temperature for 20 minutes. The liquid was then discarded and the wells were washed twice with PBST. […] Plates were then incubated for 20-60 minutes at room temperature until the optical density value of the “total” control wells, measured at 405 nm using a plate reading spectrophotometer, was approximately 1.0.

T1 sequence (P00533 669-1210 limits assumed): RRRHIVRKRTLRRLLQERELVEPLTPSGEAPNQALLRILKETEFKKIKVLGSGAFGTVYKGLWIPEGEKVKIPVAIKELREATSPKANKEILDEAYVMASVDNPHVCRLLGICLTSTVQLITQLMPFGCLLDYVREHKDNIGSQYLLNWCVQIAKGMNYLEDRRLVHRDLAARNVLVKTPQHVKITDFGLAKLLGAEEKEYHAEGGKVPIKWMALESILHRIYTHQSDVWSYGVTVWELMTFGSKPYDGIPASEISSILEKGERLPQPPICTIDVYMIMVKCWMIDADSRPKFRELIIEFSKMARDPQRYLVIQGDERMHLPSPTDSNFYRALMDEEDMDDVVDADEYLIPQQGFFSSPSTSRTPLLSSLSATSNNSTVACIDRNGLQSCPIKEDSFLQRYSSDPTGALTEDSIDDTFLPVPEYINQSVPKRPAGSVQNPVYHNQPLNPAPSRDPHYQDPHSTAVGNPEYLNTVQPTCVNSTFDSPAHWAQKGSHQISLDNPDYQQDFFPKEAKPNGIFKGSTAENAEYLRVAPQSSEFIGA

Compound	anti-inflammatory and antiarthritic activity [1]	activity against epidermal growth factor (EGF) receptor tyrosine kinase [2]	activity against VEGF receptor tyrosine kinase [3]
COc1cc2nncc(Nc3cccc(Cl)c3)c2cc1OC [4-(3-chloroanilino)-6,7-dimethoxycinnoline]	some anti-inflammatory and antiarthritic activity		
COc1ccc(Nc2cnnc3cc(OC)c(OC)cc23)cc1 [4-(4-methoxyanilino)-6,7-dimethoxycinnoline]	some anti-inflammatory and antiarthritic activity		
COc1cc2c(Nc3cc(O)c(C)cc3F)cnnc2cc1OCCCN1CCOCC1 [Example 15, 4-(2-fluoro-5-hydroxy-4-methylanilino)-6-metboxy-7-(3-morpholinopropoxy)cinnoline]		lack of significant activity	good activity

Reference: patent US6514971B1, “Cinnoline derivatives and use as medicine” (Zeneca Limited, priority 1996, dated 2003)
